{
  "source": "patent US10357549B2",
  "about": "“Pigment epithelium-derived factor (PEDF) and peptide derivatives thereof for use in osteoblast differentiation and bone growth” (Yale University, priority 2014, dated 2019)",
  "molecules": {"B1": {"name": "Wnt3a (protein, UniProt P56704 19-352, looked up)", "Protein Wnt-3a": "SYPIWWSLAVGPQYSSLGSQPILCASIPGLVPKQLRFCRNYVEIMPSVAEGIKIGIQECQHQFRGRRWNCTTVHDSLAIFGPVLDKATRESAFVHAIASAGVAFAVTRSCAEGTAAICGCSSRHQGSPGKGWKWGGCSEDIEFGGMVSREFADARENRPDARSAMNRHNNEAGRQAIASHMHLKCKCHGLSGSCEVKTCWWSQPDFRAIGDFLKDKYDSASEMVVEKHRESRGWVETLRPRYTYFKVPTERDLVYYEASPNFCEPNPETGSFGTRDRTCNVSSHGIDGCDLLCCGRGHNARAERRREKCRCVFHWCCYVSCQECTRVYDVHTCK", "notes": "prototypical Wnt agonist ligand"}},
  "format_in_all_cases": "cell-based, human",
  "key": {"[1]": {"system": "Wnt cell surface receptor LRP6", "assay": "Canonical Wnt-β-catenin signaling in hMSCs (immunoblot of phospho-LRP6 and active β-catenin)", "experimental": "The inhibitor of Wnt production (IWP-2; Tocris Bioscience, Minneapolis, Minn., USA; 2 μM×24-48 h) was used to block production of endogenous Wnt proteins (Chen et al., 2009, Nat Chem Biol, 5: 100-107; Clevers et al., 2012, Cell, 149: 1192-1205). All other chemicals, unless indicated, were purchased from Sigma (St. Louis, Mo., USA).\nAdipose-derived hMSCs [American Type Culture Collection (ATCC), Manasses, Va., USA; PCS-500-011) were propagated in MSC basal medium supplemented with MSC growth kit (ATCC). Cells were CD29, CD44, CD105, and CD166 positive and negative for CD 31, CD34, and CD45. Interrogation of Wnt-β-catenin signaling was done in ATCC MSC basal medium with 2% FBS. PEDF (500 ng/ml) was added for 6 h. Passage 2 and 3 hMSCs were used for Wnt signaling experiments. For adipocyte conversion, cells (5000 cells/cm^2) were placed in adipocyte differentiation medium (ATCC; PCS-500-050) for 9-10 d. For osteoblast differentiation, cells (5000 cells/cm^2) were differentiated in osteoblast differentiation medium (ATCC; PCS-500-052) for 10-21 d. Alkaline phosphatase kit (Sigma) was used to stain osteoblasts.\nImmunoblotting was performed as described previously (Schmitz et al., 2011, Am J Pathol, 179: 2990-2999). Proteins were separated by 10% SDS-PAGE on gradient gels (Bio-Rad, Hercules, Calif., USA). Antibodies against nonphosphorylated β-catenin, total β-catenin, phospho-LRP6 (serine 1490), total LRP6 (Cell Signaling Technologies, Danvers, Mass., USA), and alkaline phosphatase (Developmental Studies Hybridoma Bank, University of Iowa, Iowa City, Iowa, USA). To assess signaling through the Wnt coreceptor LRP6, 3T3 adipocyte precursors with vector and LRP6-KO shRNA were used (Liu et al., 2012, J Biol Chem, 287: 7213-7223). On confluence, cells were serum starved for 48 h, and then changed to DMEM with 10% FCS (d 0). PEDF (10 nM) was added on d 0, and cells were harvested after 48 h. Knockdown was confirmed by immunoblotting for total LRP6. β-actin (Sigma) was used as a loading control."}, "β-catenin": {"system": "β-catenin", "assay": "Active β-catenin and mature osteoblast gene expression in hMSC cultures with Wnt3a and PEDF peptides", "experimental": "Experiments were conducted to evaluate the effect of Wnt3a and PEDF-derived peptides on β-catenin, a transcriptional regulator of osteoblast differentiation. Cultures incubated in 50 ng/ml Wnt3a alone or in combination with 100 nM PEDF-derived peptides."}, "hMSCs": {"system": "hMSCs", "assay": "Mineralization of hMSCs under continuous Wnt3a (Alizarin red, 21 days)", "experimental": "Experiments were conducted to evaluate the effect of PEDF-derived peptides on the mineralization of hMSCs. […] For “late” groups, PEDF 34-mer was added only during the last 8 days of the differentiation protocol. Mineralization was assessed by Alizarin red staining (FIG. 14C)."}},
  "data": [
    {"molecule": "Cc1ccc2nc(NC(=O)CSc3nc4c(c(=O)n3-c3ccccc3)SCC4)sc2c1", "note": "[IWP-2, reference compound]", "values": [
      {"measurement": "LRP6 phosphorylation (endogenous Wnt production)", "setting": "[1]; IWP-2 2 μM incubation 48 h alone", "value": "near absence of LRP6 phosphorylation"}
    ]},
    {"molecule": "DPFFKVPVNALAAAVSNFGYDLYRVRSSTSPTTN [SEQ ID NO: 4, mutated K→A PEDF 34-mer peptide]", "values": [
      {"measurement": "expression of osterix (OSX)", "setting": "β-catenin; hMSC differentiated for 21 days, 50 ng/ml Wnt3a and 100 nM peptide", "value": "increases the expression of osterix (OSX)"},
      {"measurement": "Alizarin red quantitation relative to native PEDF 34-mer", "setting": "hMSCs; 100 nM peptide with continuous Wnt3a 50 ng/ml, 21 days", "value": "gain of function properties"},
      {"measurement": "mineralization of hMSCs, final phase addition", "setting": "hMSCs; added last 8 of 21 days", "value": "stimulates mineralization"},
      {"measurement": "osteoblast mineralization, peptide added in the last eight days", "setting": "hMSCs; added last 8 of 21 days, continuous Wnt3a 50 ng/ml", "value": "comparable to the full-length protein added for 21 days"}
    ]},
    {"molecule": "DPFFKVPVNKLAAAVSNFGYDLYRVRSSTSPTTN [PEDF 34-mer, PEDF-derived 34-mer peptide]", "values": [
      {"measurement": "levels of active β-catenin", "setting": "β-catenin; 100 nM peptide with 50 ng/ml Wnt3a", "value": "increases the levels of active β-catenin"}
    ]},
    {"molecule": "B1", "values": [
      {"measurement": "active β-catenin under unopposed and continuous Wnt3a", "setting": "β-catenin; 50 ng/ml Wnt3a alone", "value": "suppresses active β-catenin"},
      {"measurement": "mineralization (Alizarin red) with continuous Wnt3a versus controls", "setting": "hMSCs; Wnt3a 50 ng/ml continuous, 21-day-old hMSC cultures", "value": "diminished mineralization"},
      {"measurement": "LRP6 phosphorylation", "setting": "[1]; hMSCs, Wnt3a 50 ng/ml, PEDF 500 ng/ml", "value": "increased LRP6 phosphorylation"}
    ]}
  ]
}
